{"source": "patent US6521644B1", "about": "“Compositions for promoting growth” (Ferring BV, priority 1999, dated 2003)", "test_system": "GH surge induced by GHRH", "assay": "Effect on circulating growth hormone: GH surge induced by i.v. GHRH in rats, plasma GH by RIA", "assay_type": "in vivo, male Sprague-Dawley rats", "experimental": "Experiments were conducted in male Sprague-Dawley rats (200-220 g) obtained from lffa Credo (L'Arbresle, France), fed with standard laboratory chow ad libitum and kept on a 12 h light-dark in a temperature- and humidity-controlled room.\nRats were weighed and anesthetized with Narcorene. The ventral side of the throat was shaved and an incision was made down the center of the throat. The right jugular vein was exposed and cannulated using a polythene tubing (OD 1.0 mm) connected to a medical grade silicone tubing (OD 0.94 mm) (silicone side in the jugular vein). The tubing was secured and the polythene side was externalized through an incision made on the dorsal side of the neck. The catheter was rinsed with 300 μL of a Ringer solution containing 0.1% heparin. Rats were allowed to recover for at least 24 hours in individual cages with food and water available ad libitum.\nThe compound of Example 1B (3 mg/kg, i.v.) or its vehicle was injected 15 minutes before an injection of GHRH (0.1 μg/kg, i.v.). Blood samples (200-250 μL) were removed immediately before inhibitor and GHRH injections, and then 5, 10, 15, 20, 30 and 60 min post-GHRH. Each blood sample was replaced with an equivalent volume of a Ringer solution containing 0.1% heparin. Plasma was extracted and stored at −20° C. until determinations of GH by RIA."}
{"compound": "CC(C)(C)[C@H](N)C(=O)N1CCC[C@H]1C#N", "note": "[Example 1B, (2S)-N-((2′S)-2′-amino-3′,3′-dimethylbutanoyl)pyrrolidine-2-carbonitrile]", "values": [{"measurement": "Effect on the GH surge induced by the administration of GHRH", "setting": "3 mg/kg i.v. 15 min before GHRH 0.1 μg/kg i.v., rats", "result": "potentiated the GH surge"}, {"measurement": "mean GH, Time 5 min", "setting": "5 min post-GHRH 0.1 μg/kg i.v., inhibitor 3 mg/kg i.v. 15 min before GHRH, mean of 6 rats ± s.e.m.", "result": "483.0 ± 91.0", "unit": "ng/mL"}, {"measurement": "mean GH, Time 10 min", "setting": "10 min post-GHRH 0.1 μg/kg i.v., inhibitor 3 mg/kg i.v. 15 min before GHRH, mean of 6 rats ± s.e.m.", "result": "309.5 ± 55.40", "unit": "ng/mL"}, {"measurement": "mean GH, Time 0 min", "setting": "15 min after inhibitor 3 mg/kg i.v., immediately before GHRH 0.1 μg/kg i.v., mean of 6 rats ± s.e.m.", "result": "33.4 ± 6.9", "unit": "ng/mL"}, {"measurement": "mean GH, Time 15 min", "setting": "15 min post-GHRH 0.1 μg/kg i.v., inhibitor 3 mg/kg i.v. 15 min before GHRH, mean of 6 rats ± s.e.m.", "result": "164.3 ± 28.3", "unit": "ng/mL"}, {"measurement": "mean GH, Time 20 min", "setting": "20 min post-GHRH 0.1 μg/kg i.v., inhibitor 3 mg/kg i.v. 15 min before GHRH, mean of 6 rats ± s.e.m.", "result": "103.1 ± 18.1", "unit": "ng/mL"}, {"measurement": "mean GH, Time 30 min", "setting": "30 min post-GHRH 0.1 μg/kg i.v., inhibitor 3 mg/kg i.v. 15 min before GHRH, mean of 6 rats ± s.e.m.", "result": "52.1 ± 7.7", "unit": "ng/mL"}, {"measurement": "mean GH, Time 60 min", "setting": "60 min post-GHRH 0.1 μg/kg i.v., inhibitor 3 mg/kg i.v. 15 min before GHRH, mean of 6 rats ± s.e.m.", "result": "26.3 ± 3.3", "unit": "ng/mL"}, {"measurement": "GH AUC", "setting": "AUC column of Table 1, inhibitor 3 mg/kg i.v. 15 min before GHRH 0.1 μg/kg i.v., 6 rats, ± s.e.m.", "result": "5070 ± 837", "unit": "ng·min/mL"}, {"measurement": "Integrated GH response", "setting": "inhibitor-treated group, 3 mg/kg i.v. 15 min before GHRH 0.1 μg/kg i.v., p<0.05 vs vehicle (720.2±217.0)", "result": "5072.8±837.3", "unit": "ng/ml.60 min"}, {"measurement": "mean GH, Time -15 min", "setting": "plasma GH immediately before inhibitor injection (3 mg/kg i.v.), mean of 6 rats ± s.e.m.", "result": "50.5 ± 16.4", "unit": "ng/mL"}]}
